Data set [1] in a line: Complexation ability of cyclodextrins with chlorantraniliprole. Format: physicochemical.
The nature of data set [2]: Phase solubility isotherms of folpet-cyclodextrin complexes. The note with it: with folpet. It is filed as physicochemical. As for the experimental part:
The weight ratio of folpet to cyclodextrin was approximately 1:2. The content of folpet in the complex was determined by HPLC. Phase solubility isotherms were carried out for the folpet-cyclodextrin complexes.

In US12727599B2, “Use of cyclodextrins as agrochemical delivery system” (priority 2018, dated 2026) one finds complexation ability data, which are given here for two compounds.

As for `OC[C@H]1O[C@@H]2O[C@H]3[C@H](O)[C@@H](O)[C@@H](O[C@H]4[C@H](O)[C@@H](O)[C@@H](O[C@H]5[C@H](O)[C@@H](O)[C@@H](O[C@H]6[C@H](O)[C@@H](O)[C@@H](O[C@H]7[C@H](O)[C@@H](O)[C@@H](O[C@H]1[C@H](O)[C@H]2O)O[C@@H]7CO)O[C@@H]6CO)O[C@@H]5CO)O[C@@H]4CO)O[C@@H]3CO` [Alpha-cyclodextrin, alpha cyclodextrin], the complexation ability entry in data set [1] is on record as “highest complexation ability”. “methyl-beta-cyclodextrin [RAMEB cyclodextrin]”: the complexation ability entry in data set [2] was “highest complexation ability”.
